Assay results from patent US20220031800A1, “PEPTIDES FOR TREATING NON-EXUDATIVE MACULAR DEGENERATION AND OTHER DISORDERS OF THE EYE” (Allegro Pharmaceuticals, LLC, priority 2019, published 2022).

What was measured:
[1] = Trypan blue viability of human RPE cells (ARPE-19) exposed to hydrogen peroxide; type: cell-based; details: human, ARPE-19 cells (human RPE cells); 100 μM H2O2 alone, 8 hours; read-out: Reduction of cell viability
Protocol: Purpose: Investigate cytoprotective properties of risuteganib in human RPE cells (ARPE-19) exposed to hydrogen peroxide, which is a reactive oxygen species that can induce cell death at elevated levels. Methods: ARPE-19 cells were cultured in laminin-coated trans-wells for 2 weeks to induce differentiation. Cells were then exposed to the experimental conditions: […]

[2] = tested on: primary human RPE cells; assay: WST-1 cell viability of primary human RPE cells exposed to hydroquinone; type: cell-based; details: HQ 125-180 uM, 4 hours or 5 hours
Protocol: (§1) Purpose: To determine if risuteganib protects against hydroquinone (HQ)-mediated cell injury, elevated ROS level and reduced mitochondrial membrane potential (Δψm) in cultured human RPE cells. Elevated ROS levels increase oxidative stress in the cells, leading to reduced cell health and cell death. Loss of ΔΨm is a marker for early cell death. Methods: Primary human RPE cells were seeded on collagen-coated 96-well plates in triplicates at 8K, 10K and […] cells/well, respectively. Cells reached 80% to 100% confluence 24 hours after plating, and confluent cells were then grown for an additional 4 or 5 days until growth was density arrested. On day 6 after plating, cells in the plate upper half were loaded with 20 μM CM-H2DCFDA (measures ROS level) and in the plate lower half with 10 μM JC-1 (measures Δψm) for 30 minutes at 37° C. […] For the ROS and Δψm assays, a fluorescence plate reader was used to quantify ROS production (490-nm excitation, 522-nm emission), and green monomer of JC-1 (490-nm excitation, 522-nm emission) and red JC-1 aggregate (535-nm excitation, 590-nm emission), respectively. […] The WST reagent was quantified with a plate reader at 440 nm and a reference wavelength at 690 nm. Data were normalized to untreated control as 100% and were expressed as the mean±SD.

[3] = tested on: primary human RPE cells; assay: Mitochondrial membrane potential (JC-1) in primary human RPE cells exposed to hydroquinone; type: cell-based; details: HQ 125-180 uM, 3-4 hours
Protocol: as §1

[4] = tested on: primary human RPE cells; assay: ROS level (CM-H2DCFDA) in primary human RPE cells exposed to hydroquinone; type: cell-based; details: HQ 125-180 uM, 3-4 hours
Protocol: as §1

[5] = Trypan blue viability of primary mouse retinal neuron cells exposed to kainic acid; type: cell-based, CD1 mice; details: CD1, mouse; 500 μM kainic acid alone, 8 hours; read-out: Reduction of cell viability
Protocol: (§2) Purpose: Investigate neuroprotective properties of risuteganib in primary mouse retinal neuron cells exposed to kainic acid, a neuroexcitatory compound that activates glutamate receptors, resulting in overstimulation and cell death.
Methods: Fresh retina were collected from CD1 mice and then mechanically dissociated with sterile Pasteur pipette. Cell suspensions were then dispensed into petri dish and incubated for 6 hours. Cells were then exposed to the experimental conditions: (1) untreated control, (2) 1.0 mg/mL risuteganib, (3) 500 μM kainic acid (KA), and (4) 1.0 mg/mL risuteganib for 24 hours before 500 μM kainic acid exposure. 8 hours after kainic acid treatment, dead and live cell numbers were measured using Trypan blue exclusion assay on a hemocytometer.

[6] = Trypan blue viability of primary mouse Müller cells exposed to kainic acid; type: cell-based, CD1 mice; details: CD1, mouse; 500 μM kainic acid alone, 48 hours; read-out: Reduction of Muller cell viability
Description: as §2, with “Müller” for “retinal neuron”, “death. Retinal Müller cells support normal functions of neurons and their dysregulation can leads to loss of homeostasis and neuronal cell death.” for “death.”
Methods: Fresh retina were collected from CD1 mice and then mechanically dissociated with sterile Pasteur pipette into small aggregates and seeded into 35 mm culture dishes. All cultures were first left unchanged for 5-6 days and then replenished every 3-4 days. When the cell growth had reached around 80% confluency, retinal aggregates and debris were removed by media washes to form a purified cell monolayer. Cells were then exposed to the experimental conditions: (1) untreated control, (2) 1.0 mg/mL risuteganib, (3) 500 μM kainic acid (KA), and (4) 1.0 mg/mL risuteganib for 24 hours before 500 μM kainic acid exposure. 48 hours after kainic acid treatment, dead and live cell numbers were measured using Trypan blue exclusion assay on a hemocytometer.

[7] = tested on: neovascularization in mice (CNV); details: reproduced from US 2019/0062371; cited from earlier work
[8] = tested on: human retinal Müller cells (MIO-M1); assay: Mitochondrial membrane potential (JC-1) in human Müller cells (MIO-M1); type: cell-based; details: 1× concentration (clinical dose), 24 hours, vs untreated control
Protocol: Purpose: To determine the effects of risuteganib on the mitochondrial membrane potential (ΔΨm) in cultured human retinal Müller cells (MIO-M1). Loss of ΔΨm is a marker for early cell death.
Methods: The immortalized human retinal Müller cell line (MIO-M1) was obtained from the Department of Cell Biology of the University College, London. Cells were cultured in Dulbecco's Modified Eagle's Medium (DMEM) and plated in 24-well plates for 24 hours before treatment with 1× concentration of 1 mg/50 μL risuteganib, ranibizumab, bevacizumab, or aflibercept. Dosage was based on clinical dose of each compound. The experiments were repeated 3 times with 6 replicates each. After 24 hours drug treatment, the ΔΨm was measured using the JC-1 kit, a cationic dye that fluoresces red within the mitochondria of healthy, live cells. In the stressed or apoptotic cells, the mitochondrial membrane potential collapses and the cationic dye fluoresces green. First, cells were rinsed with fresh media and then incubated with the JC-1 reagent for 15 minutes at 37 degrees C. The dyes were then removed, and phosphate buffered saline was added to each well. The Red fluorescence (live cells) was read at EX 550 nm and EM 600 nm. The Green fluorescence (apoptotic cells) was read at EX 483 nm and EM 535 nm. The changes in ΔΨm were calculated by the ratio of red to green fluorescence. […]

[9] = tested on: human retinal Müller cells (MIO-M1); assay: MTT cell viability of human Müller cells (MIO-M1); type: cell-based; details: 1× concentration (clinical dose), 24 hours, vs untreated (FIG. 18)
Protocol: Purpose: To determine the effects of risuteganib and anti-VEGF drugs on the cell viability of cultured human retinal Müller cells (MIO-M1).
Methods: The immortalized human retinal Müller cell line (MIO-M1) was obtained from the Department of Cell Biology of the University College, London. Cells were cultured in Dulbecco's Modified Eagle's Medium (DMEM) and plated in 96-well plates for 24 hours before treatment with 0.5×, 1× or 2× concentrations of 1 mg/50 μL risuteganib, or 1× of ranibizumab, bevacizumab or aflibercept. Dosage was based on clinical dose of each compound. The experiments were repeated 3 times with 7-8 replicates each. After 24 hours of drug treatment, MTT NAD(P)H-dependent colorimetric assay was used to assess the number of viable cells present in the cultures. Absorbance ratios were normalized to untreated control as 100%. Statistical analysis was performed in GraphPad Prism software program.

[10] = tested on: human retinal Müller cells (MIO-M1); assay: Reactive oxygen species level in human Müller cells (MIO-M1); type: cell-based; details: 1× concentration (clinical dose), 24 hours
Protocol: Purpose: To determine the effects of risuteganib and anti-VEGF drugs on reactive oxygen species (ROS) levels in cultured human retinal Müller cells (MIO-M1). Elevated ROS levels can disrupt normal cellular functions, leading to reduced cell health and possible cell death.
Methods: The immortalized human retinal Müller cell line (MIO-M1) was obtained from the Department of Cell Biology of the University College, London. Cells were cultured in Dulbecco's Modified Eagle's Medium (DMEM) and plated in 24-well plates for 24 hours before treatment with 1× concentration of 1 mg/50 μL ALG-1001, ranibizumab, bevacizumab, or aflibercept. Dosage was based on clinical dose of each compound. The experiments were repeated 3 times with 6 replicates each. After 24 hours drug treatment, ROS level was measured using the fluorescent dye 2′,7′-dichlorodihydrofluorescein diacetate. The signals were read using the Biotek Synergy HT plate reader with EX filter in 482 nm and EM filter in 520 nm. Results were normalized to untreated control as 100%. Statistical analysis was performed in GraphPad Prism software program.

With `OO` [H2O2, hydrogen peroxide, reference compound] the cytotoxicity at 8 h, 100 μM [1] was 22%.

For `Oc1ccc(O)cc1` [HQ, hydroquinone, reference compound], the “Change in cell viability compared to untreated cells” value [2] was −82%, the “Change in Δψm compared to untreated cells” value [3] was −53% and the “Increase in ROS levels compared to untreated cells” value [4] was 78%.

`C=C(C)[C@H]1CN[C@H](C(=O)O)[C@H]1CC(=O)O` [kainic acid, reference compound] showed a cytotoxicity at 8 h, 500 μM [5] of 42% and a cytotoxicity at 48 h, 500 μM [6] of 32%.

In the case of R - G - Cys(acid)•TFA [Test Compound 1], the “Activity At Dose Tested” value [7] is given as “Active” and the “Mean % Reduction of Retinal Neovascularization In ROP Model” value [7] is given as 49 - FIG. 11%.

For “R- G - Cys(acid)•Acetate [Test Compound 2]”, the “Activity At Dose Tested” value [7] is listed as “Active” and the “Mean % Reduction of Retinal Neovascularization In ROP Model” value [7] is listed as 56 - FIG. 11%.

With aflibercept [reference compound] the “Mitochondrial membrane potential (ΔΨm), in words” value [8] was “decreased ΔΨm”, the “Cell viability (MTT), in words” value [9] was “decreased cell viability” and the “Change in ROS level compared to untreated control” value (shortened to “Change in ROS level”) [10] was 29%.

For bevacizumab [reference compound], the “Cell viability (MTT), in words” value [9] was “decreased cell viability” and the “Change in ROS level” value [10] was 24%.

B1: ranibizumab (antibody, chains of the INN, looked up, V domains shown)
VH: EVQLVESGGGLVQPGGSLRLSCAASGYDFTHYGMNWVRQAPGKGLEWVGWINTYTGEPTYAADFKRRFTFSLDTSKSTAYLQMNSLRAEDTAVYYCAKYPYYYGTSHWYFDVWGQGTLVTVSS
VL: DIQLTQSPSSLSASVGDRVTITCSASQDISNYLNWYQQKPGKAPKVLIYFTSSLHSGVPSRFSGSGSGTDFTLTISSLQPEDFATYYCQQYSTVPWTFGQGTKVEIK
notes: anti-VEGF agent
For B1, the “Cell viability (MTT), in words” value [9] was “decreased cell viability” and the “Change in ROS level” value [10] was 37%.
